This passage reports IC50 results from patent US10377770B2 (Novartis AG, priority 2015, dated 2019).

The target of this test is C-Raf FL (full length CRAF with Y340E and Y341E activating mutations, co-expressed with h14-3-3 zeta) (Homo sapiens (Human), UniProt P04049, Y340E/Y341E). Briefly: In vitro Raf activity determination, AlphaScreen p-MEK readout, c-Raf (C-Raf FL). The settings on record: c-Raf approximately 4 nM, ATP 1 μM, pre-incubation 60 minutes, reaction 1 hour. Format: biochemical. Summed up: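 Phosphorylation of kinase-dead biotinylated MEK1 (~10 nM) by C-Raf FL (~4 nM) read by AlphaScreen luminescence with anti-phospho-MEK1/2 after EDTA stop. ATP was 1 μM, with a 1 h reaction at room temperature. Compounds were pre-incubated with enzyme and substrate for 60 min in Tris/MgCl2 buffer, pH 7.5.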
In general terms: Alpha assays give light when donor and acceptor beads are brought close together.

Chain of C-Raf FL (full length CRAF with Y340E and Y341E activating mutations, co-expressed with h14-3-3 zeta) (P04049 whole entry Y340E/Y341E): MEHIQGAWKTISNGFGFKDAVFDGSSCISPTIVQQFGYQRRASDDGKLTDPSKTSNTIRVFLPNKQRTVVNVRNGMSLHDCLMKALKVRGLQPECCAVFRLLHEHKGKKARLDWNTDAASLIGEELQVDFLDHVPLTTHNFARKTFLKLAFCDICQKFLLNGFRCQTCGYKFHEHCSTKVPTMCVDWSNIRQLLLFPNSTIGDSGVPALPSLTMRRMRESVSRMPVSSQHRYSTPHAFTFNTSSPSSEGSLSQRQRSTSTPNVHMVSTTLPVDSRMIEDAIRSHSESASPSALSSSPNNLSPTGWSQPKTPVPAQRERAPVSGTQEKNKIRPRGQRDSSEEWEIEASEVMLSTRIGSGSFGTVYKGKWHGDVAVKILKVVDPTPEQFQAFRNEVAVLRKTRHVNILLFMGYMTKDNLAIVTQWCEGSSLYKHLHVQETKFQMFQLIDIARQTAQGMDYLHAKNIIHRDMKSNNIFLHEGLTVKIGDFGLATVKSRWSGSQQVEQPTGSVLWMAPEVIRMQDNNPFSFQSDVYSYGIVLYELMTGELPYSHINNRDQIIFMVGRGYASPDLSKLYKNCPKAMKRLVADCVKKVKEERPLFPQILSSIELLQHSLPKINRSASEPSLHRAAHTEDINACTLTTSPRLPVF
Chain of C-Raf FL (full length CRAF with Y340E and Y341E activating mutations, co-expressed with h14-3-3 zeta) (P63104 whole entry partner): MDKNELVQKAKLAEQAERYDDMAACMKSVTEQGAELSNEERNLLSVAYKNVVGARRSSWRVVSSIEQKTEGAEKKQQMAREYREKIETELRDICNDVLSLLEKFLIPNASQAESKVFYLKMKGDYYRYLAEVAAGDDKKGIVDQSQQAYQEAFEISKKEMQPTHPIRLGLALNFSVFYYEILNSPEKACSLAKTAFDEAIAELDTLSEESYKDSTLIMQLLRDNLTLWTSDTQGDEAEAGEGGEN

The IC50 is the concentration at which inhibition is half-maximal. A lower IC50 goes with higher potency. On to `Cc1ccc(NC(=O)c2ccnc(C(C)(C)F)c2)cc1-c1ccc2c(c1)N1CCOC[C@@H]1[C@](F)(CO)C2` [Example 400, N-(3-((4aR,5S)-5-fluoro-5-(hydroxymethyl)-1,2,4,4a,5,6-hexahydro-[1,4]oxazino[4,3-a]quinolin-9-yl)-4-methylphenyl)-2-(2-fluoropropan-2-yl)isonicotinamide], for which the IC50 is 0.1 nM.

With `CCN1C[C@@H]2COCC[C@H]2c2cc(-c3cc(NC(=O)c4ccnc(C(F)(F)F)c4F)ccc3C)cnc21` [Example 293, N-(3-((4aR, 10bR)-6-ethyl-2,4,4a,5,6,10b-hexahydro-1H-pyrano[3,4-c][1,8]naphthyridin-9-yl)-4-methylphenyl)-3-fluoro-2-(trifluoromethyl) isonicotinamide], the IC50 came to 0.1 nM.

`Cc1ncc(NC(=O)c2cccc(C(F)(F)F)c2)cc1-c1cnc2c(c1)N1CCOC[C@@H]1C[C@@H]2O` [Example 106, N-(5-((4aS,6S)-6-Hydroxy-1,2,4,4a,5,6-hexahydro-[1,4]oxazino[4,3-a][1,5]naphthyridin-9-yl)-6-methylpyridin-3-yl)-3-(trifluoromethyl)benzamide] gave an IC50 of 0.012 nM.

For the molecule `CCN1C[C@@H]2COCCN2c2cc(-c3cc(NC(=O)c4ccnc(C(C)(F)F)c4)ccc3C)cnc2C1=O` [Example 502, (R)-2-(1,1-difluoroethyl)-N-(3-(6-ethyl-7-oxo-1,2,4a,5,6,7-hexahydro-4H-[1,4]oxazino[4,3-a]pyrido[2,3-f][1,4]diazepin-10-yl)-4-methylphenyl)iso-nicotinamide], the midpoint of inhibition, the IC50, lay at 0.2 nM.

The molecule `Cc1ccc(NC(=O)c2ccnc(C(C)(F)F)c2)cc1-c1ccc2c(c1)N1CCOCC1C(F)(CO)C2` (single isomer, unassigned) [Example 83, 2-(1,1-difluoroethyl)-N-(3-(5-fluoro-5-(hydroxymethyl)-1,2,4,4a,5,6-hexahydro-[1,4]oxazino[4,3-a]quinolin-9-yl)-4-methylphenyl)isonicotinamide] returned an IC50 of 0.85 nM.

`Cc1ccc(NC(=O)c2ccnc(C(C)(C)F)c2)cc1-c1ccc2c(c1)N1CCOCC1C(CS(C)(=O)=O)C2` (racemic) [Example 365, (rac)-2-(2-fluoropropan-2-yl)-N-(4-methyl-3-(5-((methylsulfonyl)methyl)-1,2,4,4a,5,6-hexahydro-[1,4]oxazino[4,3-a]quinolin-9-yl)phenyl)isonicotinamide] registered an IC50 of 0.2 nM.

As for `Cc1ccc(NC(=O)c2ccnc(C(F)(F)F)c2)cc1-c1cc(F)c2c(c1)N1CCOC[C@@H]1[C@@](F)(CO)C2` [Example 424, N-(3-((4aR,5R)-5,7-difluoro-5-(hydroxymethyl)-1,2,4,4a,5,6-hexahydro-[1,4]oxazino[4,3-a]quinolin-9-yl)-4-methylphenyl)-2-(trifluoromethyl)isonicotinamide], the IC50 is 0.2 nM.

`Cc1ccc(NC(=O)c2ccnc(C(C)(C)C#N)c2)cc1-c1cnc2c(c1)N1CCOC[C@@H]1C[C@@H]2O` [Example 151, 2-(2-cyanopropan-2-yl)-N-(3-((4aS,6S)-6-hydroxy-1,2,4,4a,5,6-hexahydro-[1,4]oxazino[4,3-a][1,5]naphthyridin-9-yl)-4-methylphenyl)isonicotinamide] showed an IC50 of 0.014 nM.

Regarding `Cc1ncc(NC(=O)c2cccc(C(F)(F)F)c2)cc1-c1cnc2c(c1)N1CCOC[C@@H]1[C@@H](CO)C2` [Example 121, N-(5-((4aS,5S)-5-(hydroxymethyl)-1,2,4,4a,5,6-hexahydro-[1,4]oxazino[4,3-a][1,5]naphthyridin-9-yl)-6-methylpyridin-3-yl)-3-(trifluoromethyl)benzamide], the IC50 came to 0.0095 nM.

In turn, `CCN1C(=O)CC2CCOCCN2c2cc(-c3cc(NC(=O)c4ccnc(C(F)(F)F)c4)ccc3C)cnc21` (stereo not shown) [Example 314, N-(3-(8-ethyl-7-oxo-1,2,4,5,5a,6,7,8-octahydropyrido[3′, 2′:2,3][1,4]diazepino [1,7-d][1,4]oxazepin-11-yl)-4-methylphenyl)-2-(trifluoromethyl) isonicotinamide] yielded a half-maximal inhibitory concentration (IC50) of 0.6 nM.

Take `Cc1ncc(NC(=O)c2cccc(C(F)(F)F)c2)cc1-c1cnc2c(c1)N1CCOC[C@H]1C[C@]2(C)O` (racemic) [Example 44, (rac)-(cis)-N-(5-(6-hydroxy-6-methyl-1,2,4,4a,5,6-hexahydro-[1,4]oxazino[4,3-a][1,5]naphthyridin-9-yl)-6-methylpyridin-3-yl)-3-(trifluoromethyl)benzamide]: the 50% inhibitory concentration (IC50) is 0.037 nM.

In turn, `CCN1C(=O)C2COCCC2(C)c2cc(-c3cc(NC(=O)c4ccnc(C(F)(F)F)c4F)ccc3C)cnc21` (stereo not drawn) [Example 348, N-(3-((4a,10b- trans)-6-ethyl-10b-methyl-5-oxo-2,4,4a,5,6,10b-hexahydro-1H-pyrano[3,4-c][1,8]naphthyridin-9-yl)-4-methylphenyl)-3-fluoro-2-(trifluoromethyl) isonicotinamide] had an IC50 of 0.7 nM.

`Cc1ncc(NC(=O)c2cccc(C(F)(F)F)c2)cc1-c1cnc2c(c1)[C@@H]1CCOC[C@H]1C(=O)N2CCO` [Example 259, N-(5-((4aS, 10bR)-6-(2-hydroxyethyl)-5-oxo-2,4,4a,5,6,10b-hexahydro-1H-pyrano[3,4-c][1,8]naphthyridin-9-yl)-6-methylpyridin-3-yl)-3-(trifluoromethyl) benzamide] yielded an IC50 of 0.6 nM.

`Cc1ccc(NC(=O)c2ccnc(C(F)(F)F)c2)cc1-c1ccc2c(c1)N1CCOCC[C@H]1C(F)(F)[C@H]2O` [Example 528] had an IC50 of 0.7 nM.

As for `Cc1ccc(NC(=O)c2cnnc(C(F)(F)F)c2)cc1-c1cnc2c(c1)N1CCOC[C@@H]1CC(=O)N2CCO` [Example 324, (S)-N-(3-(7-(2-hydroxyethyl)-6-oxo-2,4,4a,5,6,7-hexahydro-1H-[1,4]oxazino[4,3-d]pyrido[2,3-b][1,4]diazepin-10-yl)-4-methylphenyl)-6-(trifluoromethyl) pyridazine-4-carboxamide], the IC50 was 0.8 nM.

For `CCN1C[C@H]2COCCN2c2cc(-c3cc(NC(=O)c4ccnc(C(F)(F)F)c4F)ccc3C)cnc2C1=O` [Example 499, (S)-N-(3-(6-ethyl-7-oxo-1,2,4a,5,6,7-hexahydro-4H-[1,4]oxazino[4,3-a]pyrido[2,3-f][1,4]diazepin-10-yl)-4-methyplhenyl)-3-fluoro-2-(trifluoromethyl)iso-nicotinamide], the IC50 was determined as 0.4 nM.

On to `Cc1ncc(NC(=O)c2cccc(C(F)(F)F)c2)cc1-c1ccc2c(c1)N1CCOCC[C@H]1C[C@H]2O` [Example 446, N-(5-((5aS,7R)-7-hydroxy-1,2,5,5a,6,7-hexahydro-4H-[1,4]oxazepino [4,5-a]quinolin-10-yl)-6-methylpyridin-3-yl)-3-(trifluoro-methyl)benzamide], for which half-maximal inhibition (IC50) required 0.7 nM.

In turn, `Cc1ccc(NC(=O)c2ccnc(C(C)(F)F)c2)cc1-c1ccc2c(c1)N1CCOCC1C1(COC1)C2` (racemic) [Example 55, (rac)-2-(1,1-difluoroethyl)-N-(4-methyl-3-(2,4,4a,6-tetrahydro-1H-spiro[[1,4]oxazino[4,3-a]quinoline-5,3′-oxetan]-9-yl)phenyl)isonicotinamide] showed an IC50 of 0.022 nM.

In turn, `CCN1C(=O)CC2CCOCCN2c2cc(-c3cc(NC(=O)c4ccnc(C(F)(F)F)c4)ccc3C)cnc21` (stereo not shown) [Example 316, N-(3-(8-ethyl-7-oxo-1,2,4,5,5a,6,7,8-octahydropyrido[3′, 2′:2,3][1,4]diazepino [1,7-d][1,4]oxazepin-11-yl)-4-methylphenyl)-2-(trifluoromethyl) isonicotinamide] had a 50% inhibitory concentration (IC50) of 0.8 nM.

For the molecule `CNC[C@@H]1Cc2ncc(-c3cc(NC(=O)c4ccnc(C(F)(F)F)c4)ccc3C)cc2N2CCOC[C@@H]12` [Example 530, N-(4-methyl-3-((4aR,5S)-5-((methylamino)meth-yl)-1,2,4,4a,5,6-hexahydro-[1,4]oxazino[4,3-a][1,5]naphthyridin-9-yl)phenyl)-2-(trifluoromethyl)iso-nicotinamide], 0.4 nM corresponded to half-maximal inhibition (IC50).

Turning to `Cc1ccc(NC(=O)c2ccnc(C(F)(F)F)c2F)cc1-c1cc2n(c(=O)c1)CC[C@H]1COCCN21` [Example 416, (S)-3-fluoro-N-(4-methyl-3-(8-oxo-1,2,4,4a,5,6-hexahydro-8H-pyrido[2′,1′:2,3]pyrimido[6,1-c][1,4]oxazin-10-yl)phenyl)-2-(trifluoromethyl)isonicotinamide], 0.4 nM corresponded to half-maximal inhibition (IC50).

Turning to `Cc1ccc(NC(=O)c2ccnc(C(C)(F)F)c2)cc1-c1cnc2c(c1)N1CCOC[C@@H]1C(F)(F)[C@@H]2O` [Example 162, N-(3-((4aR,6R)-5,5-difluoro-6-hydroxy-1,2,4,4a,5,6-hexahydro-[1,4]oxazino[4,3-a][1,5]naphthyridin-9-yl)-4-methylphenyl)-2-(1,1-difluoroethyl)isonicotinamide], half-maximal inhibition (IC50) was put at 0.093 nM.

`CCN1C(=O)C2(F)COCC[C@@H]2c2cc(-c3cc(NC(=O)c4ccnc(C(C)(F)F)c4)ccc3C)cnc21` (stereo partly drawn) [Example 338, 2-(1,1-difluoroethyl)-N-(3-((10bR)-6-ethyl-4a-fluoro-5-oxo-2,4,4a,5,6,10b-hexahydro-1H-pyrano[3,4-c][1,8]naphthyridin-9-yl)-4-methylphenyl)isonicotinamide] came in with a half-inhibitory concentration (IC50) of 0.5 nM.

For `Cc1ccc(NC(=O)c2ccnc(C(C)(F)F)c2)cc1-c1cnc2c(c1)N1CCOC[C@H]1C[C@H]2O` [Example 108, 2-(1,1-Difluoroethyl)-N-(3-((4aR,6R)-6-hydroxy-1,2,4,4a,5,6-hexahydro-[1,4]oxazino[4,3-a][1,5]naphthyridin-n-9-yl)-4-methylphenyl)isonicotinamide], the IC50 was 0.013 nM.

For `Cc1ccc(NC(=O)c2ccnc(C(F)(F)F)c2)cc1-c1cnc2c(c1)N1CCOCCC1CC(=O)N2CCO` (stereo not shown) [Example 318, N-(3-(8-(2-hydroxyethyl)-7-oxo-1,2,4,5,5a,6,7,8-octahydropyrido[3′, 2′:2,3][1,4]diazepino [1,7-d][1,4]oxazepin-11-yl)-4-methylphenyl)-2-(trifluoromethyl) isonicotinamide], the midpoint of inhibition, the IC50, lay at 1.4 nM.
